ChEMBL document CHEMBL1157182, “Structural insights into the Plasmodium falciparum histone deacetylase 1 (PfHDAC-1): A novel target for the development of antimalarial therapy” (Bioorg Med Chem, 2008)

Tests used:
[1] = tested on: Plasmodium falciparum; test: Antimalarial activity against chloroquine-resistant Plasmodium falciparum W2 after 48 hrs by LDH reporter assay; assay type: functional, organism-based; conditions: W2, 48 h
[2] = tested on: Plasmodium falciparum; test: Antimalarial activity against chloroquine-sensitive Plasmodium falciparum D6 after 48 hrs by LDH reporter assay; assay type: functional, organism-based; conditions: D6, 48 h

Structure (SMILES) | IC50 ([1]; read-out: IC50) [nM] | IC50 ([2]; read-out: IC50) [nM] | IC50 ([1]; read-out: pIC50 (converted)) [nM] | IC50 ([2]; read-out: pIC50 (converted)) [nM]
C[C@@H]1CC[C@H]2[C@@H](C)C(=O)O[C@@H]3O[C@@]4(C)CC[C@@H]1[C@]32OO4 [ARTEMISININ] | 1 | 9 | – | –
O=C(CCCCCCCC(=O)NO)NO [AZELAIC BIS HYDROXAMIC ACID] | 3900 | 5500 | 3890 | 5500
O=C(NO)c1ccccc1O [SALICYLHYDROXAMIC ACID] | 51300 | 35700 | 51300 | 35500
O=C(CCCCCCC(=O)NO)NO [SUBEROHYDROXAMIC ACID] | 1530 | 2230 | 1510 | 2240
CC(/C=C/C(=O)NO)=C\[C@@H](C)C(=O)c1ccc(N(C)C)cc1 [TRICHOSTATIN] | 10 | 15.6 | 9.77 | 15.5
